Results taken from PMC6540222, “Small Molecule Inhibitors of KDM5 Histone Demethylases Increase the Radiosensitivity of Breast Cancer Cells Overexpressing JARID1B” (Molecules, 2019).

How the values were obtained:
MCF-7 cells [1] = test: Flow-cytometry analysis of cell cycle distribution; format: cell-based, human; details: for cells in G2/M / subG1 cells (possible apoptotic fraction): MCF-7, 30 μM
Protocol: Flow-cytometry analysis of DNA content was carried out using an EPICS xl flow-cytometer (Beckman-Coulter, Brea, CA, USA). DMSO and inhibitor treated MCF-7 cells were trypsinized, pelleted, washed with PBS and finally resuspended in PBS containing 0.1% Triton-X-100 (#A1388.1000, AppliChem, Darmstadt, Germany) and 40 μg/mL propidium iodide (#P-4170, Sigma). After 20 min incubation at 37 °C the samples were analyzed. 10,000 events were acquired for each sample. Acquired data were analyzed using the WinMDI software by Joe Trotter, available at http://facs.scripps.edu.

[2] = test system: H3K4me3 levels in MCF-7 cells; test: Western blotting of H3K4me3 levels in bulk chromatin; format: cell-based, human; details: MCF-7 bulk chromatin, 1 μM, 10 μM and 30 μM, 24 h, vs DMSO
Protocol: Histone isolation was performed according to acid extraction of histones protocol of Shechter and colleagues. Histone concentration was determined by running 5 μL of samples and known concentrations of commercially available purified calf thymus histones (from Sigma Aldrich Cat. #000000010223565001) on a SDS-PAGE gel. The gel is stained with Coomassie blue G 250 (BIO-RAD Cat. #161-0786) for 1 hour at room temperature and then destained in distilled water. The gel image is acquired with ChemiDoc XRS+ Imaging System (Bio-Rad, Hercules, CA, USA) and the volumes of bands of the samples are compared to standard concentrations of calf thymus histone.
Proteins were resolved on a 12% (histones) or 5% (JARID1B) denaturing polyacrylamide gel, using either 4 μg of histone preparation or 40 μg of cell lysate. After electrophoresis, proteins were transferred on a nitrocellulose membrane (Protran™ […] NC, # 10600002, GE Healthcare (Amersham™), Chicago, IL, USA) via wet transfer method using a Bio-Rad tank. Transfer efficiency was verified via ponceau staining (#P7767, Sigma-Aldrich). Filters were blocked with either milk (#70166, Sigma-Aldrich) or bovine serum albumin (#A3069, Sigma-Aldrich) and then hybridized over night at 4 °C in gentle rotation with the following antibodies: rabbit anti-H3K4me3 (1:1000, #39915, Active Motif, RRID:AB_2687512); rabbit-anti-H3K27me3 (1:1000, #9733, Cell Signaling Technology, RRID:AB_2616029); rabbit-anti- H3K9pan-methylated (1:1000, #4473, RRID:AB_10544693); rabbit-anti-H3 ([…], Cat#1791, ABCAM, RRID:AB_302613); rabbit anti-H2AX (1:1000, Cat#7631, Cell Signaling Technology, RRID:AB_10860771), rabbit anti-Phospho-H2AX (1:1000, Cat#9718, Cell Signaling Technology, RRID:AB_2118009), rabbit anti-JARID1B (1:50, Cell Signaling Technology, Cat#3273 RRID: AB_1264191). Goat-anti-Rabbit Horseradish Peroxidase conjugated (1:10,000, #31460, Thermo Fisher Scientific, Waltham, MA, USA RRID:AB_228341) was used as secondary antibody for 1 hour hybridization at room temperature. Blots were scanned and analyzed with a ChemiDoc XRS+ Imaging System (Bio-Rad). The volumes of each band of protein was acquired using Bio-Rad’s ImageLab software by means of volume tools using global quantification. The signal for each protein was normalized to the housekeeping protein and ratios with average control values were determined. For histones as loading control was used either total histone H3 detected by a specific antibody or histone H1 levels by staining the upper part of the gel properly cut before protein transfer on nitrocellulose membrane.

MCF-7 cells [3] = test: Clonogenic assay after X-ray irradiation; format: cell-based, human; details: for proliferative capacity (clonogenic survival): MCF-7, 10 μM, compared to DMSO control
Protocol: One hour after treatment with inhibitors, cells were exposed to X-ray using a MLG 300/6-D apparatus (Gilardoni, Lecco, Italy) set to […] and 6 mA, in order to produce an equivalent absorbed dose of 1cGy/s. Afterwards, cells were harvested, counted and then diluted in inhibitor containing growth medium. Appropriate cell numbers were seeded in quadruplicate according to the doubling time of the cell line and to radiation dose. 24 h after this seeding, the medium with inhibitor was replaced with fresh DMEM and cells were then incubated for 14 days (enough time to allow at least six cell divisions). After this period of growth, cells were washed twice with PBS and then fixed and stained with a suitable volume of a solution made of 0.3% Methylene Blue and 80% Ethanol for 30 min at room temperature. After washing cells twice with ddH2O, plates were pictured with ChemiDoc XRS+ Imaging System (Bio-Rad) in colorimetric mode. Colonies were detected using Fiji software, with the “Find maxima” function setting a background noise threshold of 3000. Radiation-dose response curveS to X-ray for DMSO and inhibitor samples were calculated using surviving fraction. Plating efficiency and surviving fraction were calculated as follows:Plating efficiency = number of colonies counted/number of cells plated Surviving fraction = Plating efficiency/plating efficiency of shame sample

KDM5D = KDM5D (Homo sapiens, UniProt Q9BY66); test: Surface Plasmon Resonance (SPR), immobilized KDM5D; format: binding; details: KDM5D immobilized on COOH5 sensorchip, buffer HSP-1%D, analyte 6.25-100 μM
Chain of KDM5D (Q9BY66 whole entry): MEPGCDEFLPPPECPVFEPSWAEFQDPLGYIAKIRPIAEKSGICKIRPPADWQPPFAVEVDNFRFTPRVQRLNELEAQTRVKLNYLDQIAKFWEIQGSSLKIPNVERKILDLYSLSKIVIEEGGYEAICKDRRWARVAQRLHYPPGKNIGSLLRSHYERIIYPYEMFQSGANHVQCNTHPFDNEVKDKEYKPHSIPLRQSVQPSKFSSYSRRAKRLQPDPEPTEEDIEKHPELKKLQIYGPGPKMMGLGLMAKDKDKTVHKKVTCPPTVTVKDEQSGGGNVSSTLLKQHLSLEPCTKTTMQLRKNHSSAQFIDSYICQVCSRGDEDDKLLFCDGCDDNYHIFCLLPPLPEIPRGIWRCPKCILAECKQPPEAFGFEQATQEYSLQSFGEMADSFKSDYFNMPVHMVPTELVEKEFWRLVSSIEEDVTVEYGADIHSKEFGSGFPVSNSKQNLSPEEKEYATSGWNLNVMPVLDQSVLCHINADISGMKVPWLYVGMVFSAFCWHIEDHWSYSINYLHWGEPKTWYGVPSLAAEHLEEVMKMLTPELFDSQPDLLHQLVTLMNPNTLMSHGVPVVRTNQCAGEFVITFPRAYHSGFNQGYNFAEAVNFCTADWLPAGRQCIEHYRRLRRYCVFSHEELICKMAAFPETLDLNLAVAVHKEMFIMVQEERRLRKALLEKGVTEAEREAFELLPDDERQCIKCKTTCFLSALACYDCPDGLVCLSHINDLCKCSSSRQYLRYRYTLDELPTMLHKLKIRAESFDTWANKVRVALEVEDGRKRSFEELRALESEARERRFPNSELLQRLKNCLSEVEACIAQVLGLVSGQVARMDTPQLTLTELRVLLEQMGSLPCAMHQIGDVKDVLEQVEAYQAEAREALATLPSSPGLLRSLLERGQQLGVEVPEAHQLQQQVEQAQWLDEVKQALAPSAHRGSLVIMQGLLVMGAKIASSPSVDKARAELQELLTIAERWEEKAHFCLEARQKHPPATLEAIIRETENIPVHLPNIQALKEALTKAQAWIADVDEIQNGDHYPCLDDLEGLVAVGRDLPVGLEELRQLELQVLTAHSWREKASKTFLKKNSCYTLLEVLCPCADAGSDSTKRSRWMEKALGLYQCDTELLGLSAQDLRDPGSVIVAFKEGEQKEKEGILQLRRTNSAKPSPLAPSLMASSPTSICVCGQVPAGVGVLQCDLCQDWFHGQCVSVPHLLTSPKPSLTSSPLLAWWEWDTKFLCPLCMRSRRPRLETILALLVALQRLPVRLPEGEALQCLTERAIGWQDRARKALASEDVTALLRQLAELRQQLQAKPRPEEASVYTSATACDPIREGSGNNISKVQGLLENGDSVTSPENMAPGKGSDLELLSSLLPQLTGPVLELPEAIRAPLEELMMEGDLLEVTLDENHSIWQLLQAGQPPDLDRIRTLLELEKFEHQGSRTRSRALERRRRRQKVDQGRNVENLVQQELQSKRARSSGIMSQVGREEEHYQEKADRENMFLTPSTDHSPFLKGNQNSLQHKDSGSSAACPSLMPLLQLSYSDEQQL
Protocol: Surface Plasmon Resonance (SPR) experiments were carried out using a SensiQ Pioneer system (ICx Nomadics, Stillwater, OK, USA). Immobilization of ligand (KDM5D) was carried out essentially as in Ilari et al.. The sensor chip (COOH5) was activated chemically by a 100 µL injection of a 1:1 mixture of N-ethyl-N′-(3-([…])carbodiimide (200 mM) and N-hydroxysuccinimide (50 mM) at a flow rate of 5 µL/min. KDM5D was immobilized on activated sensor chips via amine coupling. The immobilization was carried out in 20 mM sodium acetate at pH 4.5; the remaining unreacted groups were blocked by injecting 1 M ethanolamine hydrochloride (100 µL). The amount of immobilized KDM5D was detected by mass concentration-dependent changes in the refractive index on the sensor chip surface and corresponded to about 11,000 resonance units (RU); an empty flow cell was used as a reference. Analytes, i.e., inhibitors RS3152, RS3183, RS3195, RS4995 and RS5033 were dissolved in DMSO at a concentration of 10 mM and diluted in HSP buffer (10 mM Hepes pH 7.4, 150 mM NaCl + 0.005% surfactant P20) to yield 100 μM inhibitor concentration in HSP + 1% DMSO (HSP-1%D). The analytes were automatically diluted in HSP-1%D and injected on the sensorchip for 120 s at a constant flow (30 µL/min); analyte concentrations were: (1) 6.25 μM; (2) 12.5 μM; (3) 25 μM; (4) 50 μM; (5) 100 μM. The increase in RU relative to baseline indicates complex formation; the plateau region represents the steady-state phase of the interaction, whereas the decrease in RU after 120 s represents dissociation of analytes from immobilized KDM5 after injection of buffer HSP-1%D. The sensorgrams were analysed using the SensiQ Qdat 4.0 program and using simple Scatchard plots.

Structure (SMILES) | perturbation of cell cycle dynamics (MCF-7 cells [1]; MCF-7, 10 μM and 30 μM) | cells in G2/M (MCF-7 cells [1]) | subG1 cells (possible apoptotic fraction) (MCF-7 cells [1]) | H3K4me3 levels [2] | H3K4me3 levels ([2]; listed as RS 5033) | proliferative capacity (clonogenic survival) (MCF-7 cells [3]; 3 Gy irradiation dose) | Kd (KDM5D) | cell cycle dynamics (MCF-7 cells [1]; MCF-7, 1 μM) | cell cycle dynamics (MCF-7 cells [1]; MCF-7, 10 μM) | proliferative capacity (clonogenic survival) (MCF-7 cells [3]; irradiated) | number of clones in sham-irradiated cells (MCF-7 cells [3]; MCF-7, sham-irradiated (not shown))
CCOC(=O)c1ccccc1C(=O)c1cccc(NS(=O)(=O)c2ccc(OC)cc2)c1 [RS5033] | no significant perturbation | not observed | not observed | more remarkable and significant increase of H3K4me3 | strong and significant increase | slight but significant decrease | 32 ± 2 µM |  |  |  | 
CCOC(=O)c1cccn1C(=O)c1cccc(NS(=O)(=O)c2ccc(OC)cc2)c1 [RS3195] |  | clear increase of cells in G2/M | consistent increase of subG1 cells | slight increase |  |  | 38 ± 2 µM | No cell cycle perturbation | slight but significant increase of G0/G1 population | no significant effect | lower number of clones
